Results published in US20040072825A1, “2-(2-(4-((2r)-2-methyl-3-(10h-phenothiazin-10-yl)propyl)-1-piperazinyl)-ethoxy) ethanol, process for the preparation thereof, pharmaceutical compositions containing said compound and therapeutic uses thereof” (priority 2000, published 2004).
Entries after “also recorded” stand apart in the source; their conditions may differ. Marks after values point to notes of the source that are not given here.

Test system: vomiting induced by cisplatin in ferrets
Assay: Cisplatin-induced emesis in ferrets, single oral administration
Type: in vivo, ferret
Details: for Proportion of animal vomiting: 60 min before cisplatin i.v., 5 h observation
Procedure: Cisplatin-induced emesis in ferrets is largely considered as the most suitable animal model for the study of drug activity against chemotherapy-induced vomiting in man (Georges L. King. Animal models in the study of vomiting. Can. J. Physiol. Pharmacol. 68, 260-268, 1988).
Three compounds, dixyrazine dihydrochloride and its (R) and (S) enantiomers were tested for their activity against vomiting induced by cisplatin in ferrets following single oral administration.
The study involved 14 groups of 8 male ferrets weighing between 0.93 kg and 1.45 kg purchased from the company MARSHALL FARMS (NEW YORK, U.S.). Groups were defined as follows: […]
group 1: control group dosed with the vehicle of test substances (sterile water),
group 2: method-control group dosed with a method-control substance, granisetron ([…], RBI®), at a dose of 0.3 mg/kg,
group 3 to 6: group dosed with diyyrazine dihydrochloride at 4 increasing doses of 7.5, 15, 30 and 60 mg/kg,
group 7 to 10: group dosed with the (R) enantiomer of dixyrazine dihydrochloride at 4 increasing doses of 7.5, 15, 30 and 60 mg/kg,
group 11 to 14: group dosed with the (S) enantiomer of drazine dihydrochloride at 4 increasing doses of 7.5, 15, 30 and 60 mg/kg.
On the day prior to the test, animals were fasted and allowed access only to water.
On the morning of the day of the study, free access to food was allowed for 30 minutes. Subsequently, animals were again put on to a water-only fast for 30 minutes before administration of the three compounds, the vehicle or the method-control substance which were administrated orally in a volume of 5 ml/kg.
Cisplatin was administrated by the intravenous route at a dose of 115 mg/m^2 and in a volume of 115 ml/m^2 (i.e. approximately at 10 mg/kg), 60 minutes after treatment. […] Emesis was characterised by abdominal contractions, which were associated with expulsion or attempted expulsion of stomach contents.
The time to onset of emesis was noted. The number of episodes of vomiting and the number of abdominal retches associated with episodes of emesis were also noted.

[1] = highest dose of 60 mg/kg p.o., 60 mg/kg

CC(CN1CCN(CCOCCO)CC1)CN1c2ccccc2Sc2ccccc21 (racemic) [Dixyrazine, 2-(2-(4-(2-methyl-3-(10H-phenothiazin-10-yl)propyl)-1-piperazinyl)ethoxy)ethanol, reference compound]
Time to onset of emesis (7.5 mg/kg p.o.): 90 min
Proportion of animal vomiting (7.5 mg/kg p.o.): 8/8
Time to onset of emesis (15 mg/kg p.o.): 76 min
Proportion of animal vomiting (15 mg/kg p.o.): 5/8
Time to onset of emesis (30 mg/kg p.o.): 73 min
Proportion of animal vomiting (30 mg/kg p.o.): 7/8
Time to onset of emesis (60 mg/kg p.o.): 81 min
suppression of vomiting, number of animals (60 mg/kg p.o.): 5 animals out of 8
Proportion of animal vomiting (60 mg/kg p.o.): 3/8*
antiemetic effect (in words) [1]: induced an antiemetic effect
effect on time to onset of emesis (in words) [1]: no effect; also recorded: did not alter this variable
antiemetic effect (in words) (highest dose of 60 mg/kg p.o., listed as dixyrazine dihydrochloride, 60 mg/kg): significantly reduce cisplatin-induced emesis
